The test concerns P. falciparum 3D7 growth, pLDH absorbance. Nature of the test: blood-stage malaria parasite growth potency – strain 3D7, dose response (AID 2305).
The IC50 is the concentration that gives 50% inhibition. A low value points to higher potency. In turn, `Cc1ccc(-n2c(Sc3ncnc4sccc34)nnc2N2CCCC2)cc1` came in with an IC50 of 260 nM.

As to `Cc1ccc(C)c(NC(=O)NCCNc2ccnc(Nc3ccc(F)cc3)n2)c1`, the IC50 is 820 nM. This IC50 lies about 3.2-fold higher than the previous one. For `Cc1cccc2[nH]c(-c3ccc(-c4ccc(CNCC5CCCO5)cc4)s3)nc12` (centres undefined) the value was 740 nM; for `Cc1cccc2[nH]c(-c3cccc(-c4cccc(NC(=O)C5CC(=O)Nc6ccccc65)c4)c3)nc12` (centres undefined), 60 nM. As to `CC(C)(C)NCCN(Cc1ccc(-c2ccc(C(F)(F)F)cc2)cc1)C(=O)Cn1c(SCc2ccc(F)cc2)nc(=O)c2c1CCC2`, the IC50 amounted to 860 nM.

Take `Cc1n[nH]c(C)c1C1CCN(CC2CCC(NC(=O)/C=C/c3ccc(Cl)c(Cl)c3)CC2)CC1` (centres undefined): the IC50 turned out to be 730 nM. The same measure for `Cc1ccccc1Nc1nc(NCCc2ccccc2)nc2ccccc12`: 1260 nM; for `CCNc1cc(C(=O)N[C@@H](Cc2ccccc2)[C@H](O)CNC2CCCCC2)cc(N2CCCCS2(=O)=O)c1`: 170 nM; for `Fc1cc(Cl)ccc1Nc1ccnc2cc(-c3ccc(CNCCN4CCOCC4)o3)ccc12`: 280 nM. With `O=C(Nc1ccc(F)cc1F)NC1CCN(CCCCCNC(=O)[C@@H]2C[C@H]2c2ccc(Cl)c(Cl)c2)CC1`, the IC50 was 500 nM. `O=C(NCCCCN1CCC(c2cccc3ccccc23)CC1)c1ccc(-c2ccc(C(F)(F)F)cn2)cc1` came in with an IC50 of 870 nM. As for `COc1cc2nc(NCCC(C)C)n3nc(-c4ccccc4)nc3c2cc1OC`, the IC50 stood at 420 nM. On to `Cn1c(=N)n(CC(=O)OCc2ccc(OCc3ccccc3)cc2)c2ccccc21`, for which the IC50 was 80 nM. For `CC(C)c1cc(C(=O)N[C@@H](Cc2ccccc2)[C@H](O)CNC2CCCCC2)cc(N2CCCC2=O)c1` the value was 120 nM; for `COc1ccc2nc(C)cc(Nc3ccc(Cl)c(Cl)c3)c2c1`, 440 nM. As for `N#Cc1c(N2CCCCCC2)nc(N)c2c(N)nc3c(c12)CC(=O)N3c1ccc(F)cc1`, the IC50 came out at 210 nM.

Consider `Cc1ccc(C(=O)Nc2ccnc(N(C)C3CCN(Cc4cccc(O)c4)CC3)c2)cn1`, for which the IC50 turned out to be 1880 nM. `CS(=O)(=O)c1ccc(-c2cncc(Nc3cccc([N+](=O)[O-])c3)c2)cc1` had an IC50 of 770 nM. With `O=C(Cc1cnc[nH]1)Nc1ccc(-c2ccc(-c3nc4ccccc4[nH]3)s2)cc1`, the IC50 stood at 1060 nM. For `CC(C)c1nc(N2CCN(C(=S)NCc3ccccc3)CC2)c(C#N)c2c1COC(C)(C)C2` the value was 140 nM; for `ON=C1CCc2cc(-c3nc(-c4ccc(OCCN5CCCCC5)cc4)[nH]c3-c3ccncc3)ccc21`, 800 nM. In turn, `COc1cc2c(cc1O)[C@@H]1[C@H](O)[C@@H](O)C=C3CCN(C2)[C@H]31` yielded an IC50 of 990 nM. As to `CCN(CCNc1nc(NCCc2cnc[nH]2)nc(N(CCC#N)Cc2ccccc2)n1)c1cccc(C)c1`, the IC50 amounted to 710 nM. In turn, `CCn1c2ccccc2c2cc(Cc3cnc(N)nc3N)ccc21` returned an IC50 of 220 nM. The molecule `O=C(Nc1ccc(Cl)cc1)c1ccc(CN2CCCN(Cc3cccc(F)c3)CC2)cc1` returned an IC50 of 1030 nM. The same measure for `CCCC(CNCc1cccc(C)c1)CNc1cc(=O)c2ccccc2[nH]1` (centres undefined): 630 nM. The same measure for `COc1ccc(-c2ccc(NC(=O)c3cccc(C#N)c3)cc2)cc1CN1CCN(C)CC1`: 710 nM. The same measure for `CCN1C(=O)N(CCC(C)C)C2(CCN(Cc3ccc(OC)cc3O)CC2)C1=O`: 870 nM; for `O=C(NCC1CCC(CNCCc2ccccc2)CC1)Nc1ccc(Cl)c(Cl)c1` (centres undefined): 740 nM; for `COc1ccc(CNCc2ccc(F)cc2)cc1-c1ccc(S(=O)(=O)NCCN2CCCC2)c(C)c1`: 730 nM. As to `O=C(Nc1ccc(SC(F)(F)F)cc1)Nc1ccnc2ccccc12`, the IC50 is 750 nM.

In turn, `Cc1cc2nc(-c3ccc(C(=O)NC4CCN(Cc5ccccc5)CC4)s3)[nH]c2cc1C` came in with an IC50 of 770 nM. `O=C(c1ccccc1)N(Cc1ccccc1-c1ccc(CNCCc2ccccc2)cc1)C1CCN(Cc2ccccc2)CC1` yielded an IC50 of 990 nM. In turn, `Cc1ccc(O)cc1Nc1ccnc2ccc(-c3cccc(CN(C)C)c3)cc12` gave a 50% inhibitory concentration (IC50) of 510 nM. In turn, `COc1cc2nc(Nc3ccc(N4CCOCC4)cc3)nc(N)c2cc1OC` showed an IC50 of 870 nM. `CCC(CC)CN1C(=O)C(C)(c2ccccc2)N=C1N` (centres undefined): the IC50 is 1060 nM. `CN1CCN(Cc2ccc(-c3ccc4c(Nc5ccc(F)cc5Cl)ccnc4c3)o2)CC1` came in with an IC50 of 140 nM. Molecule `Cc1cc(=O)c(C2CCC(c3ccc(Cl)cc3)CC2)c(C)[nH]1` (centres undefined) had a 50% inhibitory concentration (IC50) of 740 nM. The molecule `COc1cc(NC(=O)c2cc3c(C)nn(-c4cccc(C(F)(F)F)c4)c3s2)cc(OC)c1OC` showed an IC50 of 800 nM. Turning to `Cc1nc2nc(N)nc(N)c2c(C)c1Cc1ccc(C(F)(F)F)cc1`, the IC50 worked out at 750 nM. Molecule `Cc1ccc(-n2c(=O)c3cccnc3n2CC(=O)Nc2cccc(C)c2C)cc1` registered an IC50 of 860 nM. `O=C(NC1CC1)c1ccc2cc(C(=O)N3Cc4ccccc4C(c4ccccc4)C3)ccc2c1` (centres undefined) yielded an IC50 of 910 nM. This IC50 and that of the molecule before are within 1.5-fold of each other.

Turning to `Cc1cccc(N2CCN(Cc3cc(Cl)ccc3O)CC2)c1C`, the half-inhibitory concentration (IC50) stood at 770 nM. This IC50 and that of the molecule before are within 1.5-fold of each other. With `Cc1ccc(Cn2nc(N3CCNCC3)ccc2=O)cc1NC(=O)Nc1ccc(-c2ccccc2)cc1`, the IC50 was 840 nM.

Source of the values: PubChem BioAssay AID2305 (GlaxoSmithKline (GSK), 2010).
